According to patent US12269816B2, “Benzothiophene compound, preparation method therefor and use thereof” (SICHUAN KELUN-BIOTECH BIOPHARMACEUTICAL CO., LTD., priority 2019, dated 2025):
pEC50: −log10 of the molar value.

How the values were obtained:
[1] = test system: STING-mediated interferon (IFN) signal reporter gene in THP1-Blue™ ISG cells; test: STING-mediated interferon (IFN) signal SEAP reporter gene assay in THP1-Blue ISG cells; assay type: cell-based, human
Description: In this experiment, the activity of the SEAP (secreted embryonic alkaline phosphatase) reporter gene regulated by the IFN regulatory factor (interferon regulatory factor) was detected in the THP1-Blue™ ISG cells (InvivoGen) to evaluate the agonistic effect of the compounds to be tested on the STING-mediated IFN signal pathway at the cellular level.
The THP1-Blue™ ISG cells (InvivoGen) in the logarithmic phase were centrifuged, and resuspended in a cell culture solution to a density of 2×10^6 cells/ml. The cell suspension was inoculated in a 96-well cell culture plate (Corning) at 50 μL/well. The mother liquor of the compound to be tested was gradiently diluted with a cell culture solution to obtain a 2× working concentration diluted solution (control compounds 1 and 2 were diluted at a 3-fold gradient: 200, 66.67, 22.22, 7.41, 2.47, 0.82, 0.27 and 0 μM; compounds 1, 2, 4, 6, 8, and 23 were diluted at a 8-fold gradient: 60, 7.5, 0.94, 0.12, 0.015, 0.0018, 0.00023 and 0 μM; and compounds 3 and 5 were diluted at a 10-fold gradient: 10, 1, 0.1, 0.01, 0.001, 0.0001, 0.00001 and 0 μM). The 2× working concentration diluted solution of the compound was added into a 96-well plate (50 μl of the culture solution containing 2% DMSO was added into the negative control well) at 50 μL/well. The culture plate was then placed in a cell incubator, and incubated for 16 h. After the cell incubation, 10 μL of the cell culture supernatant was transferred to a 96-well plate, and a QUANTI-Blue (InvivoGen) solution was added at 90 μL/well. The cells were incubated at 37° C. for 3 h. The absorbance at 620 nm (OD620nm) was read with a microplate reader.
In the table, EC50 refers to the concentration of a compound when ODM620nm value generated by stimulation of the compound reaches half of Emax; and Emax refers to the highest OD620nm value generated by stimulation of the compound.

[2] = test system: STING and its downstream proteins TBK1 and IRF3 in THP-1 cells; test: Western blotting of phosphorylation of STING signal pathway proteins in human THP-1 cells; assay type: cell-based; details: 3 hours, protein blotting, FIGS. 1-5, result in words
Description: (§1) In this experiment, the changes in the phosphorylation levels of STING and its downstream proteins TBK1 (TANK-binding kinase 1) and IRF3 (interferon regulatory factor 3) were detected by protein blotting to evaluate the agonistic effect of the test compounds on the STING signal pathway at the cellular level.
The THP-1 cells in the logarithmic phase were centrifuged, and resuspended in a cell culture solution to a density of […]. The cell suspension was inoculated into a 12-well cell culture plate (Corning) at 0.5 mL/well. The compound to be tested was diluted with a cell culture solution to 2× working solution concentration (control compounds 1 and 2: 60 μM; compounds 1 and 3: 0.6 μM, 6 μM, and 60 μM; compounds 2, 4, 6 and 8: 6 μM, 20 μM, and 60 μM). 0.5 mL of the diluted solution of the compound was added into a 12-well plate (500 μl of the culture solution containing 2% DMSO was added into the negative control well), and the plate was incubated in a cell incubator for 3 hours. After the incubation, the cells were collected by centrifugation, lysed with 60 μL cell lysis buffer (CST) for 30 minutes, and centrifuged at 12,000 rpm for 15 minutes. The supernatant was collected to determine the protein concentration, and then an appropriate amount of 5× protein loading buffer was added. The mixture was heated at 95° C. for 10 minutes to prepare a protein electrophoresis sample. Finally protein blotting was performed to detect the phosphorylation level of the corresponding protein. The primary antibodies used in the protein blotting were purchased from CST: STING (D2P2F) rabbit mAb, Phospho-STING (Ser366) rabbit mAb, Phospho-IRF3 (Ser396) (D601M) rabbit mAb, IRF3 (D83B9) rabbit mAb, TBK1/NAK (D1B4) rabbit mAb, Phospho-TBK1/NAK (Ser172) (D52C2) XP® rabbit mAb, and GAPDH (D16H11) rabbit mAb; and the secondary antibody horseradish peroxidase-conjugated goat anti-rabbit IgG (H+L) was purchased from Zsgb-bio.

[3] = test system: STING and its downstream proteins TBK1 and IRF3 in Raw264.7 cells; test: Western blotting of phosphorylation of STING signal pathway proteins in mouse Raw264.7 cells; assay type: cell-based; details: 3 hours, protein blotting, FIGS. 6-7, result in words
Description: as §1
The Raw264.7 cells in the logarithmic phase were centrifuged, and resuspended in a cell culture solution to a density of 1.6×10^6 cells/mL. The cell suspension was inoculated into a 6-well cell culture plate (Corning) at 1 mL/well. The compound to be tested was diluted with a cell culture solution to 2× working solution concentration (control compounds 1 and 2: 60 μM; compound 8: 0.6 μM, 6 μM, and 60 μM; compounds 2, 4 and 6: 6 μM, 20 μM, and 60 μM). 1 mL of the diluted solution of the compound was added into a 6-well plate (1 mL of the culture solution containing 2% DMSO was added into the negative control well). The plate was placed in a cell incubator, and incubated for 3 hours. After the incubation, the cells were collected by centrifugation, lysed with 60 μL cell lysis buffer (CST) for 30 minutes, and centrifuged at 12000 rpm for 15 minutes. The supernatant was collected to determine the protein concentration, and then an appropriate amount of 5× protein loading buffer was added. The mixture was heated at 95° C. for 10 minutes to prepare a protein electrophoresis sample. Finally, protein blotting was performed to detect the phosphorylation level of the corresponding protein. The primary antibodies used in the protein blotting were purchased from CST: STING (D2P2F) rabbit mAb, Phospho-STING (Ser365) rabbit mAb, Phospho-IRF3 (Ser396) (D601M) rabbit mAb, IRF3 (D83B9) rabbit mAb, TBK1/NAK (D1B4) rabbit mAb, Phospho-TBK1/NAK (Ser172) (D52C2) XPV rabbit mAb, GAPDH (D16H11) rabbit mAb; and the secondary antibody horseradish peroxidase-conjugated goat anti-rabbit IgG (H+L) was purchased from Zsgb-bio.

pEC50 ([1]; Homo sapiens, 16 h incubation, SEAP reporter read at OD620nm): 6.34
Compound: COc1cc2cc(C(=O)CCC(=O)O)sc2cc1OCCCOc1cc2sc(C(=O)N(C)CCC(=O)O)cc2cc1OC [Compound 2, 4-(6-(3-((2-((2-carboxyethyl)(methyl)carbamoyl)-5-methoxybenzo[b]thiophen-6-yl)oxy)propoxy)-5-methoxybenzo[b]thiophen-2-yl)-4-oxobutanoic acid]
Emax (OD620nm) ([1]; highest OD620nm value generated by stimulation of the compound, 16 h): 1.82 OD620nm
agonistic effect on the STING-mediated Interferon (IFN) signal pathway ([1]; result in words): strong agonistic effects
agonistic effect on the phosphorylation levels of STING, TBK1 and IRF3 [2]: strong agonistic effects
agonistic effect on the phosphorylation levels of STING, TBK1 and IRF3 [3]: strong agonistic effects
